Results taken from ChEMBL document CHEMBL5634205, “Pyrazolopyridine-based kinase inhibitors for anti-cancer targeted therapy” (RSC Med Chem, 2024).

Biological target: T1, Tyrosine-protein kinase receptor TYRO3 (Homo sapiens, UniProt Q06418)
T1 sequence (Q06418 whole entry): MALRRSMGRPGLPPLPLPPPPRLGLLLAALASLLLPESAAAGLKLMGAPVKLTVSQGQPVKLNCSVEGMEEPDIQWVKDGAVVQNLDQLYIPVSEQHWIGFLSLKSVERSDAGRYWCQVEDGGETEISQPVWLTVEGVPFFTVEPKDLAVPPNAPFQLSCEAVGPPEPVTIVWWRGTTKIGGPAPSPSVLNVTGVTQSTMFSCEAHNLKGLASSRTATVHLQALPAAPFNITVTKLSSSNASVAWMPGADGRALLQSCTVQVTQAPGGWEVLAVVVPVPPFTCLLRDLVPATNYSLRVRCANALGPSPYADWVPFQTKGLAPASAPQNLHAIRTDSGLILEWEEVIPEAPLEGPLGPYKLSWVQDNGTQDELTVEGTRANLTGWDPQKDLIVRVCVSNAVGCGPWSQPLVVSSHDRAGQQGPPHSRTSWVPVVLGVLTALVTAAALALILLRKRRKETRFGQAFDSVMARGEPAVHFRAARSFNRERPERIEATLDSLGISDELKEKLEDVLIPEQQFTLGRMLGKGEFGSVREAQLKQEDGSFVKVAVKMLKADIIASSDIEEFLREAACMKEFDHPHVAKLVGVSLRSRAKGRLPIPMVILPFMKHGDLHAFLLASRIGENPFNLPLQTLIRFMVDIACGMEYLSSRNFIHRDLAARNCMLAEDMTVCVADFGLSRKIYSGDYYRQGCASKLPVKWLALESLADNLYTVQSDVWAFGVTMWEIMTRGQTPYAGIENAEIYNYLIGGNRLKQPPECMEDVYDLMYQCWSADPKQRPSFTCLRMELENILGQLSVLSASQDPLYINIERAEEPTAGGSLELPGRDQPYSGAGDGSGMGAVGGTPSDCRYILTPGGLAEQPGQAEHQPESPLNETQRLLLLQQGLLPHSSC
Assay: Inhibition of SKY (unknown origin)

CN1C(=O)CCc2cc(NC(=O)c3n[nH]c4ccccc34)ccc21
IC50: 3.2 nM

O=C(O)c1cccc(C(=O)Nc2n[nH]c3ncc(-c4ccc(F)cc4)cc23)c1
IC50: 1.2 nM
